Experimental data: PubChem BioAssay (NCI)
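Interpolation was linear, between the two tested concentrations surrounding the appropriate level; five concentrations were tested over 48 hours in 96-well plates. Abbreviation: GI50, concentration required for 50% inhibition of growth. At the TGI there is no net growth.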

How the values were obtained:
Experiment in all cases: growth of human tumour cells (NCI), 48 h; in the data active = GI50 below about 0.43 µM; inactive = the rest
SK-MEL-5 melanoma = test system: SK-MEL-5 melanoma
TK-10 renal = test system: TK-10 renal
SK-MEL-2 melanoma = test system: SK-MEL-2 melanoma
UACC-62 melanoma = test system: UACC-62 melanoma
DU-145 prostate = test system: DU-145 prostate
HCT-116 colon = test system: HCT-116 colon
EKVX NSCLC = test system: EKVX NSCLC
NCI-H226 lung = test system: NCI-H226 lung
SK-MEL-28 melanoma = test system: SK-MEL-28 melanoma
MDA-MB-435 = test system: MDA-MB-435
MDA-MB-231 breast = test system: MDA-MB-231 breast
786-0 renal = test system: 786-0 renal
A549 NSCLC = test system: A549 NSCLC
MDA-N = test system: MDA-N
HCT-15 colon = test system: HCT-15 colon
PC-3 prostate = test system: PC-3 prostate
UO-31 renal = test system: UO-31 renal
SK-OV-3 ovarian = test system: SK-OV-3 ovarian
NCI-H460 lung = test system: NCI-H460 lung
MALME-3M melanoma = test system: MALME-3M melanoma
M14 melanoma = test system: M14 melanoma
U251 CNS = test system: U251 CNS
HT29 colon = test system: HT29 colon
ACHN renal = test system: ACHN renal
HCC-2998 colon = test system: HCC-2998 colon
COLO 205 colon = test system: COLO 205 colon
OVCAR-4 ovarian = test system: OVCAR-4 ovarian
OVCAR-3 ovarian = test system: OVCAR-3 ovarian
K-562 leukemia = test system: K-562 leukemia
OVCAR-5 ovarian = test system: OVCAR-5 ovarian
SNB-19 CNS = test system: SNB-19 CNS
SF-295 CNS = test system: SF-295 CNS
HOP-62 NSCLC = test system: HOP-62 NSCLC
HL-60(TB) leukemia = test system: HL-60(TB) leukemia
IGROV1 ovarian = test system: IGROV1 ovarian
CAKI-1 renal = test system: CAKI-1 renal
CCRF-CEM leukemia = test system: CCRF-CEM leukemia
RPMI-8226 leukemia = test system: RPMI-8226 leukemia
RXF 393 renal = test system: RXF 393 renal
SW-620 colon = test system: SW-620 colon
UACC-257 melanoma = test system: UACC-257 melanoma
NCI-H23 lung = test system: NCI-H23 lung
T-47D breast = test system: T-47D breast
KM12 colon = test system: KM12 colon
MCF7 breast = test system: MCF7 breast
OVCAR-8 ovarian = test system: OVCAR-8 ovarian
LOX IMVI melanoma = test system: LOX IMVI melanoma
SNB-75 CNS = test system: SNB-75 CNS
SN12C renal = test system: SN12C renal
SF-268 CNS = test system: SF-268 CNS
BT-549 breast = test system: BT-549 breast
NCI/ADR-RES ovarian = test system: NCI/ADR-RES ovarian
SR leukemia = test system: SR leukemia
NCI-H522 lung = test system: NCI-H522 lung
SF-539 CNS = test system: SF-539 CNS
A498 renal = test system: A498 renal
MOLT-4 leukemia = test system: MOLT-4 leukemia
HS 578T breast = test system: HS 578T breast
HOP-92 NSCLC = test system: HOP-92 NSCLC

COC(=O)c1cc2c3c(cc(NCCN)c2[nH]1)N(C(=O)c1cc2cc(OC)c(OC)c(OC)c2[nH]1)CC3CCl (stereo unspecified)
0.827 µM: TGI (EKVX NSCLC)
0.283 µM: TGI (786-0 renal)
2.95 µM: TGI (TK-10 renal)
0.176 µM: TGI (UACC-62 melanoma)
0.164 µM: TGI (SK-MEL-2 melanoma)
0.48 µM: TGI (SK-MEL-28 melanoma) | TGI (HOP-62 NSCLC)
> 100 µM: TGI (K-562 leukemia)
0.253 µM: TGI (M14 melanoma)
0.213 µM: TGI (HT29 colon)
0.178 µM: TGI (NCI-H226 lung)
0.65 µM: TGI (UO-31 renal)
5.12 µM: TGI (SK-OV-3 ovarian)
0.0516 µM: TGI (DU-145 prostate)
1.42 µM: TGI (HCT-15 colon)
0.0366 µM: TGI (U251 CNS)
0.207 µM: TGI (MDA-N)
0.31 µM: TGI (OVCAR-4 ovarian)
0.146 µM: TGI (COLO 205 colon)
0.481 µM: TGI (A549 NSCLC)
0.0256 µM: TGI (HCT-116 colon)
0.467 µM: TGI (MDA-MB-231 breast)
0.123 µM: TGI (MALME-3M melanoma)
0.165 µM: TGI (SK-MEL-5 melanoma)
0.0517 µM: TGI (SNB-19 CNS)
0.293 µM: TGI (MDA-MB-435)
0.182 µM: TGI (HCC-2998 colon)
0.42 µM: TGI (OVCAR-5 ovarian)
0.251 µM: TGI (ACHN renal)
0.536 µM: TGI (NCI-H460 lung)
0.858 µM: TGI (SF-295 CNS)
0.569 µM: TGI (OVCAR-3 ovarian)
1.01 µM: TGI (PC-3 prostate)

CCN(CC)CCCNc1ccc([N+](=O)[O-])c2nc3ccc(OC)cc3c(NCCCN(CC)CC)c12
3.42 µM: TGI (HT29 colon)
3.56 µM: TGI (MCF7 breast)
1.04 µM: TGI (HL-60(TB) leukemia)
4.76 µM: TGI (NCI-H23 lung)
2.76 µM: TGI (786-0 renal)
> 10 µM: TGI (SK-MEL-5 melanoma) | TGI (TK-10 renal) | TGI (IGROV1 ovarian) | TGI (UACC-62 melanoma) | TGI (DU-145 prostate) | TGI (CAKI-1 renal) | TGI (UACC-257 melanoma) | TGI (EKVX NSCLC) | TGI (SK-MEL-28 melanoma) | TGI (MDA-N) | TGI (T-47D breast) | TGI (SK-OV-3 ovarian) | TGI (MALME-3M melanoma) | TGI (M14 melanoma) | TGI (SNB-75 CNS) | TGI (COLO 205 colon) | TGI (SF-268 CNS) | TGI (HOP-62 NSCLC)
3.05 µM: TGI (KM12 colon)
2.84 µM: TGI (MDA-MB-231 breast)
5.89 µM: TGI (SN12C renal)
3.03 µM: TGI (HCC-2998 colon)
3.75 µM: TGI (K-562 leukemia)
2.9 µM: TGI (PC-3 prostate)
2.79 µM: TGI (HCT-15 colon)
7.37 µM: TGI (CCRF-CEM leukemia)
5.81 µM: TGI (RPMI-8226 leukemia)
3.73 µM: TGI (A549 NSCLC)
2.69 µM: TGI (LOX IMVI melanoma)
3.98 µM: TGI (SW-620 colon)
4.05 µM: TGI (RXF 393 renal)
2.7 µM: TGI (OVCAR-8 ovarian)

CCn1c(-c2nonc2N)nc2ccc(F)cc21
inactive: GI50 (BT-549 breast) > 25 µM | GI50 (SK-MEL-5 melanoma) > 25 µM | GI50 (TK-10 renal) > 25 µM | GI50 (SK-MEL-2 melanoma) > 25 µM | GI50 (HL-60(TB) leukemia) > 25 µM | GI50 (IGROV1 ovarian) > 25 µM | GI50 (UACC-62 melanoma) > 25 µM | GI50 (DU-145 prostate) > 25 µM | GI50 (CAKI-1 renal) > 25 µM | GI50 (CCRF-CEM leukemia) > 25 µM | GI50 (RPMI-8226 leukemia) > 25 µM | GI50 (RXF 393 renal) > 25 µM | GI50 (SW-620 colon) > 25 µM | GI50 (HCT-116 colon) > 25 µM | GI50 (NCI/ADR-RES ovarian) > 25 µM | GI50 (UACC-257 melanoma) > 25 µM | GI50 (EKVX NSCLC) > 22.2 µM | GI50 (NCI-H226 lung) > 25 µM | GI50 (NCI-H23 lung) > 25 µM | GI50 (SR leukemia) > 25 µM | GI50 (NCI-H522 lung) > 25 µM | GI50 (SK-MEL-28 melanoma) > 25 µM | GI50 (MDA-MB-435) > 25 µM | GI50 (MDA-MB-231 breast) > 25 µM | GI50 (786-0 renal) > 25 µM | GI50 (A549 NSCLC) > 25 µM | GI50 (HCT-15 colon) > 25 µM | GI50 (SF-539 CNS) > 25 µM | GI50 (T-47D breast) > 25 µM | GI50 (KM12 colon) > 25 µM | GI50 (MCF7 breast) > 25 µM | GI50 (A498 renal) 13.6 µM | GI50 (PC-3 prostate) > 25 µM | GI50 (UO-31 renal) > 25 µM | GI50 (MOLT-4 leukemia) > 25 µM | GI50 (OVCAR-8 ovarian) > 25 µM | GI50 (SK-OV-3 ovarian) > 25 µM | GI50 (NCI-H460 lung) > 25 µM | GI50 (MALME-3M melanoma) > 25 µM | GI50 (M14 melanoma) > 25 µM | GI50 (U251 CNS) > 25 µM | GI50 (LOX IMVI melanoma) > 25 µM | GI50 (HT29 colon) > 25 µM | GI50 (SNB-75 CNS) > 25 µM | GI50 (ACHN renal) > 25 µM | GI50 (HCC-2998 colon) > 25 µM | GI50 (COLO 205 colon) > 25 µM | GI50 (OVCAR-4 ovarian) > 25 µM | GI50 (OVCAR-3 ovarian) > 25 µM | GI50 (K-562 leukemia) > 25 µM | GI50 (SN12C renal) > 25 µM | GI50 (HS 578T breast) > 25 µM | GI50 (OVCAR-5 ovarian) > 25 µM | GI50 (SNB-19 CNS) > 25 µM | GI50 (HOP-92 NSCLC) 7.36 µM | GI50 (SF-295 CNS) > 25 µM | GI50 (SF-268 CNS) > 25 µM | GI50 (HOP-62 NSCLC) > 25 µM
> 25 µM: TGI (BT-549 breast) | TGI (SK-MEL-5 melanoma) | TGI (TK-10 renal) | TGI (SK-MEL-2 melanoma) | TGI (HL-60(TB) leukemia) | TGI (IGROV1 ovarian) | TGI (UACC-62 melanoma) | TGI (DU-145 prostate) | TGI (CAKI-1 renal) | TGI (CCRF-CEM leukemia) | TGI (RPMI-8226 leukemia) | TGI (RXF 393 renal) | TGI (SW-620 colon) | TGI (HCT-116 colon) | TGI (NCI/ADR-RES ovarian) | TGI (UACC-257 melanoma) | TGI (EKVX NSCLC) | TGI (NCI-H226 lung) | TGI (NCI-H23 lung) | TGI (SR leukemia) | TGI (NCI-H522 lung) | TGI (SK-MEL-28 melanoma) | TGI (MDA-MB-435) | TGI (MDA-MB-231 breast) | TGI (786-0 renal) | TGI (A549 NSCLC) | TGI (HCT-15 colon) | TGI (SF-539 CNS) | TGI (T-47D breast) | TGI (KM12 colon) | TGI (MCF7 breast) | TGI (A498 renal) | TGI (PC-3 prostate) | TGI (UO-31 renal) | TGI (MOLT-4 leukemia) | TGI (OVCAR-8 ovarian) | TGI (SK-OV-3 ovarian) | TGI (NCI-H460 lung) | TGI (MALME-3M melanoma) | TGI (M14 melanoma) | TGI (U251 CNS) | TGI (LOX IMVI melanoma) | TGI (HT29 colon) | TGI (SNB-75 CNS) | TGI (ACHN renal) | TGI (HCC-2998 colon) | TGI (COLO 205 colon) | TGI (OVCAR-4 ovarian) | TGI (OVCAR-3 ovarian) | TGI (K-562 leukemia) | TGI (SN12C renal) | TGI (HS 578T breast) | TGI (OVCAR-5 ovarian) | TGI (SNB-19 CNS) | TGI (HOP-92 NSCLC) | TGI (SF-295 CNS) | TGI (SF-268 CNS) | TGI (HOP-62 NSCLC)
